Measured values taken from the kinase profiling compilation of Christmann-Franck et al. (2016).

Columns and labels:
Test in all cases: KINOMEscan competition binding
Details in all cases: compound 10.0 µM
MAP4K1 (human) = MAP4K1 (human) (UniProt Q92918)
FYN (human) = FYN (human) (UniProt P06241)
PRKD1 (human) = PRKD1 (human) (UniProt Q15139)
DMPK (human) = DMPK (human) (UniProt Q09013)
PHKG1 (human) = PHKG1 (human) (UniProt Q16816)
SRPK1 (human) = SRPK1 (human) (UniProt Q96SB4)
AXL (human) = AXL (human) (UniProt P30530)
FGR (human) = FGR (human) (UniProt P09769)
CDK7 (human) = CDK7 (human) (UniProt P50613)
ACVR1 (human) = ACVR1 (human) (UniProt Q04771)
EPHA4 (human) = EPHA4 (human) (UniProt P54764)
SRMS (human) = SRMS (human) (UniProt Q9H3Y6)
MAPKAPK2 (human) = MAPKAPK2 (human) (UniProt P49137)
MAPKAPK2 (human), sequence (P49137 whole entry, looked up): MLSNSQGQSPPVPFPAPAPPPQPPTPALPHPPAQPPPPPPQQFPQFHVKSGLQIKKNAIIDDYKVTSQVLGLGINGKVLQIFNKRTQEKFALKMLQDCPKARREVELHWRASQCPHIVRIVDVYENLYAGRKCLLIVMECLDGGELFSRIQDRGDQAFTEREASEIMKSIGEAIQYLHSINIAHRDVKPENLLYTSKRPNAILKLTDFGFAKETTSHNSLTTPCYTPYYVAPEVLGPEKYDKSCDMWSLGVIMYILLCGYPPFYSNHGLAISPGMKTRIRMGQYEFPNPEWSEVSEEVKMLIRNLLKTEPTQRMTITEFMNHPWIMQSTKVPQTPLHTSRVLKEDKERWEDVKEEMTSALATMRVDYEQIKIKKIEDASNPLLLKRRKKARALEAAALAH

[1] = target: JAK1 JH1 catalytic (human) (UniProt P23458)
PAK4 (human) = PAK4 (human) (UniProt O96013)
PAK4 (human), sequence (O96013 whole entry, looked up): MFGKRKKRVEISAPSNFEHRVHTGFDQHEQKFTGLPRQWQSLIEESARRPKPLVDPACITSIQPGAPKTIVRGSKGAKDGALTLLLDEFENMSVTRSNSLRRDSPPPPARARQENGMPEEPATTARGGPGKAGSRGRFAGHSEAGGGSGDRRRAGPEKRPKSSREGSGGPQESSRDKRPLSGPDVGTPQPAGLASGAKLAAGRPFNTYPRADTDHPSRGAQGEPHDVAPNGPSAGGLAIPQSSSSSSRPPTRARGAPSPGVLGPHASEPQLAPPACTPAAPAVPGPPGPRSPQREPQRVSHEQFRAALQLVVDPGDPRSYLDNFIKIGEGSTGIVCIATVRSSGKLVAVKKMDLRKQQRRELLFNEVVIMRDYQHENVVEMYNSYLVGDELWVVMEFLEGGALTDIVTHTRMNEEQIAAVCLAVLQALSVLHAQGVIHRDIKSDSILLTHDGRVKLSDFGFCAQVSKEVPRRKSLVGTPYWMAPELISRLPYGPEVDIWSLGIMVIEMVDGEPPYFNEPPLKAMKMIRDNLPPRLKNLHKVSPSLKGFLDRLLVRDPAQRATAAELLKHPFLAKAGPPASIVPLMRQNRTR

RPS6KA1 KD1 (human) = RPS6KA1 KD1 (human) (UniProt Q15418)
BMPR2 (human) = BMPR2 (human) (UniProt Q13873)
TYRO3 (human) = TYRO3 (human) (UniProt Q06418)
TYRO3 (human), sequence (Q06418 whole entry, looked up): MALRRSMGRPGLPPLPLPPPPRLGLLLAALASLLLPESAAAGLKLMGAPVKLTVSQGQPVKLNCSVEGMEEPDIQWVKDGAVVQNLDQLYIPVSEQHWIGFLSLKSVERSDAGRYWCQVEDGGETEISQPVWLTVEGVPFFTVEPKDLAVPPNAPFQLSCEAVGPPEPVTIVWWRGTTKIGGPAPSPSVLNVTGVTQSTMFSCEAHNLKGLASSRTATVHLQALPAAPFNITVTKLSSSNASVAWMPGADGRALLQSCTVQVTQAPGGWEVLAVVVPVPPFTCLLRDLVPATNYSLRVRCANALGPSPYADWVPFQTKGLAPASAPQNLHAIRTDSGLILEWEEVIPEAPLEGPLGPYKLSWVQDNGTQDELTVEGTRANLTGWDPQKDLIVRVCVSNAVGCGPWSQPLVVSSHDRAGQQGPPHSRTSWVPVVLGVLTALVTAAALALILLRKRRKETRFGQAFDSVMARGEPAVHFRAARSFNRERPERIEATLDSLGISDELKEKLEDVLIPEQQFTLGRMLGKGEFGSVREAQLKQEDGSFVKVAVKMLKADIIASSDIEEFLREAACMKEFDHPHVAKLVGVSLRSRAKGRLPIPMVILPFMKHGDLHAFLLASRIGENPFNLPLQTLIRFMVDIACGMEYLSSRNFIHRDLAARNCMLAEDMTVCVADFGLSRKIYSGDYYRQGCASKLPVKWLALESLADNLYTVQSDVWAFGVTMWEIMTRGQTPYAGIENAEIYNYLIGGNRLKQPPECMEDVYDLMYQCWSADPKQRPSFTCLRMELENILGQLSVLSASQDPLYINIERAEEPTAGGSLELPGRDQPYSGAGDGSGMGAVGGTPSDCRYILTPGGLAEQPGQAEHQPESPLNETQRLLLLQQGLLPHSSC

AKT2 (human) = AKT2 (human) (UniProt P31751)
ACVR1B (human) = ACVR1B (human) (UniProt P36896)
ACVR1B (human), sequence (P36896 whole entry, looked up): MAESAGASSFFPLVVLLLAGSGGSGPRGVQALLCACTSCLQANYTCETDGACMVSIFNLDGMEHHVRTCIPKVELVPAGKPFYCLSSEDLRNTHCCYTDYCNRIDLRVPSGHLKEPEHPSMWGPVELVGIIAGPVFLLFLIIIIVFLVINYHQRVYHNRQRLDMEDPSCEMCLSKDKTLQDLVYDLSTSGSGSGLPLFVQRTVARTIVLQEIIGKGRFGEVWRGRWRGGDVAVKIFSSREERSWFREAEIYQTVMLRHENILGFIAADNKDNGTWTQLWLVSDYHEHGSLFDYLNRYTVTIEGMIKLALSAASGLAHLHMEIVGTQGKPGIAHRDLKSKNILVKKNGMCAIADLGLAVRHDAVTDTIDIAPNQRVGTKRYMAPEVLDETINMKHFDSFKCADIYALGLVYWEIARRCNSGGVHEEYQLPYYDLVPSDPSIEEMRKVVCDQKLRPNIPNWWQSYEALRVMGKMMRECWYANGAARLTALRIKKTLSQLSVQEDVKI

PRKX (human) = PRKX (human) (UniProt P51817)
PRKX (human), sequence (P51817 whole entry, looked up): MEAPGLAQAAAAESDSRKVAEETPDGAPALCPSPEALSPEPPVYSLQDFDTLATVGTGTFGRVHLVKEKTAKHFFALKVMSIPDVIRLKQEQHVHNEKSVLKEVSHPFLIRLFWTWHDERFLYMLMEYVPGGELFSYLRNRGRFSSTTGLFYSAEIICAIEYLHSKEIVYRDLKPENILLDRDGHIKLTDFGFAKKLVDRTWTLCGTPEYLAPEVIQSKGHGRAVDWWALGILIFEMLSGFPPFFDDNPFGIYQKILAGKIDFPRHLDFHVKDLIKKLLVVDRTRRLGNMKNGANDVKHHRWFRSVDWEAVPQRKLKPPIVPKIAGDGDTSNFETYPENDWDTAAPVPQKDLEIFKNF

FGFR1 (human) = FGFR1 (human) (UniProt P11362)
FGFR1 (human), sequence (P11362 whole entry, looked up): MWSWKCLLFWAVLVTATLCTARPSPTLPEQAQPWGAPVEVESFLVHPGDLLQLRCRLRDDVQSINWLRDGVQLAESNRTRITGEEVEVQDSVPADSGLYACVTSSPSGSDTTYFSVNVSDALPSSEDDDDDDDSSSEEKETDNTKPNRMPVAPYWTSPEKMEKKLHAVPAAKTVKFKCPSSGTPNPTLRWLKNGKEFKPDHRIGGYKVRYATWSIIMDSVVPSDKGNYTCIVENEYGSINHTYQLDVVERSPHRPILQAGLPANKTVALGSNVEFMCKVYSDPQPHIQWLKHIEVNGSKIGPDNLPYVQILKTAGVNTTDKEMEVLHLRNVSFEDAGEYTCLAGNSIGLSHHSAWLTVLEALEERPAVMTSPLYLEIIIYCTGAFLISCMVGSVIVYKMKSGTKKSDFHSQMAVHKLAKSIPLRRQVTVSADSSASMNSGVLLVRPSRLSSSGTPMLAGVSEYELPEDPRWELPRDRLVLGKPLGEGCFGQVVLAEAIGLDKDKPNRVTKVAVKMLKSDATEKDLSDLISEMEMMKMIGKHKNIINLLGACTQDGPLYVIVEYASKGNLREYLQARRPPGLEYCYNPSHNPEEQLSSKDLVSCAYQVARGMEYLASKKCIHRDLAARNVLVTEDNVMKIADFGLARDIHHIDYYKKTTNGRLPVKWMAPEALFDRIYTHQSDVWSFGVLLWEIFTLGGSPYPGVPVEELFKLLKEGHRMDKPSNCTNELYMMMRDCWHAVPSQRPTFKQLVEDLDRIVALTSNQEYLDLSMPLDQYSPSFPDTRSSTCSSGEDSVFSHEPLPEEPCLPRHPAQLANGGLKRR

MYLK3 (human) = MYLK3 (human) (UniProt Q32MK0)
ACVR2A (human) = ACVR2A (human) (UniProt P27037)
PIP4K2B (human) = PIP4K2B (human) (UniProt P78356)
[2] = tested on: EGFR (human), P00533 [L858R]
RPS6KA5 KD1 (human) = RPS6KA5 KD1 (human) (UniProt O75582)
CIT (human) = CIT (human) (UniProt O14578)
TXK (human) = TXK (human) (UniProt P42681)
PRKCQ (human) = PRKCQ (human) (UniProt Q04759)
IKBKE (human) = IKBKE (human) (UniProt Q14164)
PRKAA2 (human) = PRKAA2 (human) (UniProt P54646)
PRKAA2 (human), sequence (P54646 whole entry, looked up): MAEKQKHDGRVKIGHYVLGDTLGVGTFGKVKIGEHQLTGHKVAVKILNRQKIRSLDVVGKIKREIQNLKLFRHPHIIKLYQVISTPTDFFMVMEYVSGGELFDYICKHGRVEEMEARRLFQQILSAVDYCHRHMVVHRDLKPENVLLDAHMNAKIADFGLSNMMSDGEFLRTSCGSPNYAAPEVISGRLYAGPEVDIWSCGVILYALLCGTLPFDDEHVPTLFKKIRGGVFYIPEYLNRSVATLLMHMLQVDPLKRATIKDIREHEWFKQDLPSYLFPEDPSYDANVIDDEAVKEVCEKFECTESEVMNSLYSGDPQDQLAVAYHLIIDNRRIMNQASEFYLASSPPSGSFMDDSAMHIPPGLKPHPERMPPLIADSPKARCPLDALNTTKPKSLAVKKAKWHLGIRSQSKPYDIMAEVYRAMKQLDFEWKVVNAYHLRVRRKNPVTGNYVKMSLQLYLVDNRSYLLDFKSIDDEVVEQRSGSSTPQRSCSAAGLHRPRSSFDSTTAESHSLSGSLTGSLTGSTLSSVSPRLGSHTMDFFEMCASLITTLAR

PRKACA (human) = PRKACA (human) (UniProt P17612)

SRPK1 (human), sequence (Q96SB4 whole entry, looked up): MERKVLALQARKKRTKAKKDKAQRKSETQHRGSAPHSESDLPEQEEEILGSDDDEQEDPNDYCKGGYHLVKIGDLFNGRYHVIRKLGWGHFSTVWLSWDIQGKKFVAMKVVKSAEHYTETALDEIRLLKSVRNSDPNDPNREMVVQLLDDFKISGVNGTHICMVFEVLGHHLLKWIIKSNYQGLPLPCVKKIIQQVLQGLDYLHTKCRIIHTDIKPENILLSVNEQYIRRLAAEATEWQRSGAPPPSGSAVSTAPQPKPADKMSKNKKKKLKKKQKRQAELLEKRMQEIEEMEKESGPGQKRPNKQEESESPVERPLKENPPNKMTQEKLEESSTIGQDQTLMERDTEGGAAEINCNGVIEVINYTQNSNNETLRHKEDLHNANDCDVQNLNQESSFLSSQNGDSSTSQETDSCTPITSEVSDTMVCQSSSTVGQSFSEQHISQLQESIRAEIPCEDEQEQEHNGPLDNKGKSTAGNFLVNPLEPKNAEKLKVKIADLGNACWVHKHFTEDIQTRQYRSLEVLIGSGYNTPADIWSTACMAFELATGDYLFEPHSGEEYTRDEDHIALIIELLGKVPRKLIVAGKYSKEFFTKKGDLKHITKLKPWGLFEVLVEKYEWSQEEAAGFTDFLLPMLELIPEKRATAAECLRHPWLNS

Compound | kinase still bound, per cent of control (MAP4K1 (human)) | kinase still bound, per cent of control (FYN (human)) | kinase still bound, per cent of control (PRKD1 (human)) | kinase still bound, per cent of control (DMPK (human)) | kinase still bound, per cent of control (PHKG1 (human)) | kinase still bound, per cent of control (SRPK1 (human)) | kinase still bound, per cent of control (AXL (human)) | kinase still bound, per cent of control (FGR (human)) | kinase still bound, per cent of control (CDK7 (human)) | kinase still bound, per cent of control (ACVR1 (human)) | kinase still bound, per cent of control (EPHA4 (human)) | kinase still bound, per cent of control (SRMS (human)) | kinase still bound, per cent of control (MAPKAPK2 (human)) | kinase still bound, per cent of control (PAK4 (human)) | kinase still bound, per cent of control (RPS6KA1 KD1 (human)) | kinase still bound, per cent of control (BMPR2 (human)) | kinase still bound, per cent of control (TYRO3 (human)) | kinase still bound, per cent of control (AKT2 (human)) | kinase still bound, per cent of control (ACVR1B (human)) | kinase still bound, per cent of control (PRKX (human)) | also measured
COc1cc(C)c(Sc2cnc(NC(=O)c3ccc(CNC(C)C(C)C)cc3)s2)cc1C(=O)N1CCN(C(C)=O)CC1 (stereo not given) | 25% | 100% | 100% | 100% | 100% | 100% | 4% | 100% | 1.4% | 100% | 100% | 100% | 100% | 100% | 100% | 100% | 100% | 100% | 100% | 100% | kinase still bound, per cent of control [1]: 100%; kinase still bound, per cent of control (FGFR1 (human)): 100%; kinase still bound, per cent of control (MYLK3 (human)): 100%; kinase still bound, per cent of control (ACVR2A (human)): 100%; kinase still bound, per cent of control (PIP4K2B (human)): 100%; kinase still bound, per cent of control [2]: 100%; kinase still bound, per cent of control (RPS6KA5 KD1 (human)): 100%; kinase still bound, per cent of control (CIT (human)): 100%; kinase still bound, per cent of control (TXK (human)): 100%; kinase still bound, per cent of control (PRKCQ (human)): 100%; kinase still bound, per cent of control (IKBKE (human)): 100%; kinase still bound, per cent of control (PRKAA2 (human)): 100%; kinase still bound, per cent of control (PRKACA (human)): 100%
COc1ccc(N(C(=O)Oc2cc(C(=O)Nc3cccc(C(F)(F)F)c3)ccc2C)c2ccnc(Nc3ccc(N4CCN(C)CC4)cc3)n2)c(OC)c1 | 4.6% | 1.4% | 100% | 100% | 100% | 100% | 100% | 1.2% | 100% | 100% | 2.4% | 0% | 100% | 100% | 100% | 1.1% | 100% | 100% | 100% | 100% | kinase still bound, per cent of control (FGFR1 (human)): 0.6%; kinase still bound, per cent of control (MYLK3 (human)): 100%; kinase still bound, per cent of control (ACVR2A (human)): 100%; kinase still bound, per cent of control (PIP4K2B (human)): 100%; kinase still bound, per cent of control [2]: 2.4%; kinase still bound, per cent of control (RPS6KA5 KD1 (human)): 100%; kinase still bound, per cent of control (CIT (human)): 0.7%; kinase still bound, per cent of control (TXK (human)): 0.65%; kinase still bound, per cent of control (PRKCQ (human)): 100%; kinase still bound, per cent of control (IKBKE (human)): 100%; kinase still bound, per cent of control (PRKAA2 (human)): 3.3%; kinase still bound, per cent of control (PRKACA (human)): 33%
